A value given as a limit tells only on which side of the number the result lay.

In general, IC50 refers to the concentration needed to halve the response being measured. By inhibition is commonly meant the relative decrease from the control value, in per cent. High values mean a response far below the control, low ones a response near the control.

Assay [1] relates to Trypanosoma brucei gambiense. The assay is described as follows: Antimicrobial activity against bloodstream forms of Trypanosoma brucei gambiense Feo after 72 hrs by resazurin assay. In kind it is functional, organism-based. (Resazurin is reduced to fluorescent resorufin, in cell work by metabolically active cells.)
Assay [2] relates to Trypanosoma brucei brucei. The assay can be described thus: Antimicrobial activity against bloodstream forms of Trypanosoma brucei brucei 90-13 at 1 ug/ml after 72 hrs by resazurin assay. It is filed as functional. To be noted: 90-13, 72 h.
The test system of assay [3] is Trypanosoma brucei brucei. The assay can be described thus: Antimicrobial activity against bloodstream forms of Trypanosoma brucei brucei 90-13 at 10 ug/ml after 72 hrs by resazurin assay. In kind it is functional. To be noted: 90-13, 72 h.
In assay [4] the test system is Trypanosoma brucei brucei. The assay is described as follows: Antimicrobial activity against bloodstream forms of Trypanosoma brucei brucei 90-13 after 72 hrs by resazurin assay. In kind it is functional, organism-based. The following applies: 90-13, 72 h.
The subject of assay [5] is Trypanosoma brucei gambiense. The assay can be described thus: Antimicrobial activity against bloodstream forms of Trypanosoma brucei gambiense Feo at 10 ug/ml after 72 hrs by resazurin assay. It is filed as functional.
In assay [6] the test system is Trypanosoma brucei gambiense. The assay is described as follows: Antimicrobial activity against bloodstream forms of Trypanosoma brucei gambiense Feo at 1 ug/ml after 72 hrs by resazurin assay. It is filed as functional.

Regarding `COc1ccc([C@H]2c3sc(=O)[nH]c3SC[C@]23CC(=O)N(c2ccc(Cl)cc2)C3=O)cc1OC` (relative stereo), the IC50 in assay [1] was 423 nM; in assay [4], 262 nM. Moreover, in assay [2], the inhibition at 1 µg/mL came out at 82.4%. The compound also gave an inhibition at 10 µg/mL in assay [3] of 93.6%.

For the compound `CCN(CC)c1ccc([C@H]2c3sc(=O)[nH]c3SC[C@]23CC(=O)N(c2ccc(Cl)cc2)C3=O)cc1` (relative stereo), the IC50 in assay [1] worked out at 3620 nM; in assay [4], 2400 nM. For the same compound, in assay [2], the inhibition at 1 µg/mL worked out at 21.1%. In assay [3], the inhibition at 10 µg/mL is 98.2%.

Turning to `CN(C)c1ccc([C@H]2c3sc(=O)[nH]c3SC[C@]23CC(=O)N(c2ccc(Cl)cc2)C3=O)cc1` (relative stereo), the IC50 in assay [1] is 1470 nM; in assay [4], 1280 nM. Further, at 1 µg/mL the inhibition in assay [2] was 36.8%. This compound showed an inhibition at 10 µg/mL in assay [3] of 98.2%.

Turning to `O=C1C[C@]2(CSc3[nH]c(=O)sc3[C@@H]2c2ccccc2O)C(=O)N1c1ccc(Cl)cc1` (relative stereo), the inhibition at 1 µg/mL in assay [2] turned out to be 13.4%; in assay [6], 0.9%. Also, the inhibition at 10 µg/mL in assay [3] was 11.5%; in assay [5], 19.3%.

Turning to `O=C1C[C@]2(CSc3[nH]c(=O)sc3[C@@H]2c2ccccc2O)C(=O)N1c1ccc(O)cc1` (relative stereo), the inhibition at 1 µg/mL in assay [2] is 7%; in assay [6] it was less than 5%. Also, the figures for the inhibition at 10 µg/mL in assay [3] and in assay [5] were 18.5% and 15.4%, respectively.

In the case of `Cc1cccc(N2C(=O)C[C@]3(CSc4[nH]c(=O)sc4[C@@H]3c3ccccc3O)C2=O)c1` (relative stereo), the figures for the inhibition at 1 µg/mL in assay [2] and in assay [6] were 5.5% and less than 5%, respectively. The inhibition at 10 µg/mL worked out at 24.5% in assay [3] and 15.3% in assay [5].

With `COc1cc([C@H]2c3sc(=O)[nH]c3SC[C@@]2(CC(=O)O)C(=O)O)ccc1OCc1ccccc1` (relative stereo), the inhibition at 1 µg/mL in assay [2] amounted to 18.1%. The compound further displayed an inhibition at 10 µg/mL in assay [3] of less than 5%.

`COc1cc([C@H]2c3sc(=O)[nH]c3SC[C@@]2(CC(=O)O)C(=O)O)ccc1OC(F)F` (relative stereo) had an inhibition at 1 µg/mL in assay [2] of 11.3%. In addition, the inhibition at 10 µg/mL in assay [3] was less than 5%.

In assay [2], `CN(C)c1ccc([C@H]2c3sc(=O)[nH]c3SC[C@@]2(CC(=O)O)C(=O)O)cc1` (relative stereo) came in with an inhibition at 1 µg/mL of 5.3%. In assay [3], the inhibition at 10 µg/mL is less than 5%.

Turning to `CCN(CC)c1ccc([C@H]2c3sc(=O)[nH]c3SC[C@@]2(CC(=O)O)C(=O)O)cc1` (relative stereo), the inhibition at 1 µg/mL in assay [2] was less than 5%. The compound further registered an inhibition at 10 µg/mL in assay [3] of 5.6%.

Turning to `COc1ccc([C@H]2c3sc(=O)[nH]c3SC[C@]23CC(=O)N(c2ccc(Cl)cc2)C3=O)cc1` (relative stereo), the inhibition at 1 µg/mL is 10.6% in assay [2] and 2.3% in assay [6]. For the same compound, the inhibition at 10 µg/mL in assay [3] came to 13%; in assay [5], 9.8%.

As for `N=C(N)c1ccc(OCCCCCOc2ccc(C(=N)N)cc2)cc1` [PENTAMIDINE], the IC50 amounted to 5.2 nM in assay [1] and 3.2 nM in assay [4].

For the origin of these results see ChEMBL document CHEMBL2203200, “Synthesis and antitrypanosomal activity of new 6,6,7-trisubstituted thiopyrano[2,3-d][1,3]thiazoles” (Bioorg Med Chem Lett, 2012).
